For assay [1], the system named is interferon-stimulated responsive elements (ISRE). Kind of assay: Activation of ISRE promoter elements by conditioned media from PBMC (HEK-ISREluc). It counts as cell-based, human. The settings on record: Homo sapiens; conditioned media from PBMC transferred to HEK-ISREluc cells, 24 hours; lowest effective concentration; read-out: PBMC LEC. In outline:
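Human PBMCs (≥2 donors, RPMI + 10% human AB serum, 2×10^5 cells/well) incubated overnight with compound; supernatant transferred to HEK293 cells stably carrying pISRE-Luc for 24 h, then luciferase read. LEC = compound concentration on PBMCs giving luciferase signal at least two-fold above assay SD; recombinant IFN-α-2a standard.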

For another assay, the target named is T1, human TLR7 (Homo sapiens, UniProt Q9NYK1).
T1 construct: expressed in transfected cells; host or cells: HEK293 cells, transient transfection with CMV-TLR7 plasmid and NFκB-luc plasmid
T1 sequence (Q9NYK1 27-1049): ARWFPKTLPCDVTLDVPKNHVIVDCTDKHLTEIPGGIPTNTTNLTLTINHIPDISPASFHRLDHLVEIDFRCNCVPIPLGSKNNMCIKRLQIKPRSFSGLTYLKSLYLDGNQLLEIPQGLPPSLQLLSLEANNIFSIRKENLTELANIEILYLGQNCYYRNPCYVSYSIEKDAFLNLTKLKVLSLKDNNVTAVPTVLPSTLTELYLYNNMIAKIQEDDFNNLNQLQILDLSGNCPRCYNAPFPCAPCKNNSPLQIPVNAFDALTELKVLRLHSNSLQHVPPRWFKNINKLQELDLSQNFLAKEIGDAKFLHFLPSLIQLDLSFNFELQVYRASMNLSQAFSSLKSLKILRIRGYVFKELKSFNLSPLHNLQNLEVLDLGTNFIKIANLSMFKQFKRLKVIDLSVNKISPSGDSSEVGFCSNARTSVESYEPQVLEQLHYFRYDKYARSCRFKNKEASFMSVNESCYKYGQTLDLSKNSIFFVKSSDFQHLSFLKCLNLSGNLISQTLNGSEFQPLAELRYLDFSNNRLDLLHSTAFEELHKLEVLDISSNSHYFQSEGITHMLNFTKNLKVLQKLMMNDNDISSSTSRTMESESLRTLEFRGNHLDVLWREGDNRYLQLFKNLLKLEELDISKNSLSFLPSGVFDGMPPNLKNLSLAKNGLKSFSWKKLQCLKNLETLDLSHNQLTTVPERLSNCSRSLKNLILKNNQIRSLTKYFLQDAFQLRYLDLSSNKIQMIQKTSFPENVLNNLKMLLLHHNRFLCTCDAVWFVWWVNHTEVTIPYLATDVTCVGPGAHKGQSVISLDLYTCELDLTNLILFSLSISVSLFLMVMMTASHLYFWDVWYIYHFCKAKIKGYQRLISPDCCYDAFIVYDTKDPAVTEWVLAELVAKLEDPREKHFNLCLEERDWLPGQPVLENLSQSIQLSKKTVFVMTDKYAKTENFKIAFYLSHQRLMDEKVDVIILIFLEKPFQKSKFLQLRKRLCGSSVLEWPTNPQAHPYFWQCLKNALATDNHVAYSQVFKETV
Kind of assay: TLR7 cellular reporter assay (HEK293, NFκB-luc). Type of assay: cell-based. The settings on record: HEK293 cells transfected with CMV-TLR7 and NFκB-luc, 6 hours incubation; lowest effective concentration. Summed up:
(§1)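 HEK293 cells transiently transfected with receptor expression vector plus NFκB-luciferase reporter, exposed to compound (added in 4% DMSO) for 6 hours at 37° C, 5% CO2. Luciferase activity measured by luminescence; dose-response curves from quadruplicate measurements.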
Background: A reporter such as luciferase makes a cellular process visible.

The target in another assay is T2, human TLR8 (Homo sapiens, UniProt Q9NR97).
T2 construct: expressed in transfected cells; host or cells: HEK293 cells, transient transfection with TLR8 plasmid and NFκB-luc plasmid
T2 sequence (Q9NR97 27-1041): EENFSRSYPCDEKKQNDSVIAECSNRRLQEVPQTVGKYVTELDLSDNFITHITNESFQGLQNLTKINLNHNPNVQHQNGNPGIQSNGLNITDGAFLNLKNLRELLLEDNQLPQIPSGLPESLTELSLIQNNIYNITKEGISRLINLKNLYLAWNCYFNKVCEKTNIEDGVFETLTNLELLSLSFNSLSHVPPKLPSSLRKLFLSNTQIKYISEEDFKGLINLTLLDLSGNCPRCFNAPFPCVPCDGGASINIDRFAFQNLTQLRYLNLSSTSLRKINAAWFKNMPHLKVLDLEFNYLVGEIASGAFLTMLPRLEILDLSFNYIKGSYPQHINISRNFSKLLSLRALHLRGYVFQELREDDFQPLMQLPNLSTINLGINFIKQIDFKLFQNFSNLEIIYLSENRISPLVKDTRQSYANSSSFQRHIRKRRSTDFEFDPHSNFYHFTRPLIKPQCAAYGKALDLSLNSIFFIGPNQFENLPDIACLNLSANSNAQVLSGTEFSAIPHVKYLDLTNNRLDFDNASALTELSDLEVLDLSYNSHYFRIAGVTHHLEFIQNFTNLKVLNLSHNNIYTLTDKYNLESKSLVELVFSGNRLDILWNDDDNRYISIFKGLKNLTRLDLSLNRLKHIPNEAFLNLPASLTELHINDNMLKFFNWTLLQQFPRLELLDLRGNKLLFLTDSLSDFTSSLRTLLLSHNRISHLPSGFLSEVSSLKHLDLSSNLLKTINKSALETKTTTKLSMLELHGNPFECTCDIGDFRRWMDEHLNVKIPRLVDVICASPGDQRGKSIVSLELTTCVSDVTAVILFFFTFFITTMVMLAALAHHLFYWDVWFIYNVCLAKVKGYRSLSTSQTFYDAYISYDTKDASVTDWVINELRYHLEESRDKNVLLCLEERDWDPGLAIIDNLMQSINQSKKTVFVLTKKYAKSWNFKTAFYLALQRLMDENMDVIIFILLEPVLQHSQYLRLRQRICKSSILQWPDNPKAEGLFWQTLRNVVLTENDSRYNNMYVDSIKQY
Kind of assay: TLR8 cellular reporter assay (HEK293, NFκB-luc). It counts as cell-based. The note with it: HEK293 cells transfected with CMV-TLR8 and NFκB-luc, 6 hours incubation; lowest effective concentration. In outline:
as §1

Take `COc1ccnc(Cn2ccc3nc(N)nc(NCc4cc(C)on4)c32)c1` [Compound 167]: in assay [1], the minimal effective concentration was 0.008 µM. In addition, the “TLR7 LEC” value on human TLR7 worked out at 0.09 µM. At human TLR8, the “TLR8 LEC” value was above 25 µM.
Take `COc1ccnc(Cn2ccc3nc(N)nc(NCc4cc(C)on4)c32)c1OC` [Compound 168]: the minimal effective concentration in assay [1] is 0.011 µM. For the same compound, on human TLR7, the “TLR7 LEC” value is 0.09 µM. In addition, the “TLR8 LEC” value at human TLR8 is above 25 µM.
For `COc1c(C)cnc(Cn2ccc3nc(N)nc(NCc4cc(C)on4)c32)c1C` [Compound 169], in that order: 0.011 µM, 0.04 µM and above 25 µM.
For `Cc1cc(CNc2nc(N)nc3ccn(Cc4cccc(C(N)=O)n4)c23)no1` [Compound 172], the minimal effective concentration in assay [1] came to 0.017 µM. In addition, the “TLR7 LEC” value on human TLR7 was 1.40 µM. Besides, the “TLR8 LEC” value on human TLR8 is above 25 µM.
`Cc1nc(CNc2nc(N)nc3ccn(Cc4ccccn4)c23)no1` [Compound 173]: the minimal effective concentration in assay [1] is 0.066 µM. The “TLR7 LEC” value at human TLR7 is 0.53 µM. In addition, the “TLR8 LEC” value on human TLR8 is above 25 µM.
Taken in the same sequence, the figures for `Cc1ccc(Cn2ccc3nc(N)nc(NCc4cc(C)on4)c32)nc1` [Compound 175] were 0.009 µM, 0.02 µM and above 25 µM.
On to `Cc1cc(CNc2nc(N)nc3ccn(Cc4cn(-c5ccccc5)nn4)c23)no1` [Compound 176], for which the minimal effective concentration in assay [1] is 0.009 µM. Also, the “TLR7 LEC” value on human TLR7 is 0.04 µM. Moreover, on human TLR8, the “TLR8 LEC” value was above 25 µM.
For `Cc1nc(CNc2nc(N)nc3ccn(Cc4ccccn4)c23)c(C)o1` [Compound 177], in that order: 3.93 µM, 8.67 µM and above 25 µM.
For `Cc1cc(CNc2nc(N)nc3ccn(Cc4cccc(F)n4)c23)no1` [Compound 178], in assay [1], the minimal effective concentration came out at 0.014 µM. For the same compound, the “TLR7 LEC” value on human TLR7 is 0.15 µM. The “TLR8 LEC” value at human TLR8 is above 25 µM.
For `COc1ncccc1Cn1ccc2nc(N)nc(NCc3cc(C)on3)c21` [Compound 179], in that order: 0.003 µM, 0.02 µM and above 25 µM.
For the compound `COc1cc(OC)nc(Cn2ccc3nc(N)nc(NCc4cc(C)on4)c32)n1` [Compound 180], the minimal effective concentration in assay [1] was found to be 0.004 µM. Further, the “TLR7 LEC” value at human TLR7 came out at 0.01 µM. For the same compound, the “TLR8 LEC” value on human TLR8 was above 25 µM.
For `Cc1cc(CNc2nc(N)nc3ccn(Cc4cc(C)on4)c23)no1` [Compound 181], in that order: 0.015 µM, 0.06 µM and 20.2 µM.
Take `Cc1cc(CNc2nc(N)nc3ccn(Cc4cc5ccccc5cn4)c23)no1` [Compound 182]: in assay [1], the minimal effective concentration is 0.018 µM. On human TLR7, the “TLR7 LEC” value amounted to 0.05 µM. For the same compound, the “TLR8 LEC” value at human TLR8 was above 25 µM.
For the compound `Cc1cc(CNc2nc(N)nc3ccn(Cc4ccc5cccnc5n4)c23)no1` [Compound 183], the minimal effective concentration in assay [1] is 0.009 µM. Further, the “TLR7 LEC” value on human TLR7 is 0.59 µM. The “TLR8 LEC” value at human TLR8 is above 25 µM.
`Cc1cc(CNc2nc(N)nc3ccn(Cc4ncccc4C)c23)no1` [Compound 185]: the minimal effective concentration in assay [1] was 0.018 µM. Further, the “TLR7 LEC” value at human TLR7 stood at 0.07 µM. Moreover, the “TLR8 LEC” value on human TLR8 is above 25 µM.
For `Cc1cc(CNc2nc(N)nc3ccn(Cc4ncccn4)c23)no1` [Compound 186], in that order: 0.035 µM, 0.14 µM and above 25 µM.
`Cc1cc(CNc2nc(N)nc3ccn(Cc4ccccn4)c23)nn1C` [Compound 187]: the minimal effective concentration in assay [1] was 0.52 µM. Further, on human TLR7, the “TLR7 LEC” value stood at 4.78 µM. Also, the “TLR8 LEC” value on human TLR8 is above 25 µM.
Taken in the same sequence, the figures for `Cn1cnc(CNc2nc(N)nc3ccn(Cc4ccccn4)c23)c1` [Compound 188] were 0.047 µM, 7.62 µM and above 25 µM.
Take `Cc1cc(CNc2nc(N)nc3ccn(Cc4csc(C)n4)c23)no1` [Compound 192]: the minimal effective concentration in assay [1] was 0.03 µM. Further, the “TLR7 LEC” value on human TLR7 worked out at 0.07 µM. Also, the “TLR8 LEC” value on human TLR8 was above 25 µM.
Consider `Cn1cc(CNc2nc(N)nc3ccn(Cc4ccccn4)c23)nn1` [Compound 193], for which, in assay [1], the minimal effective concentration worked out at 0.447 µM. Further, on human TLR7, the “TLR7 LEC” value is 11.3 µM. The “TLR8 LEC” value at human TLR8 was above 25 µM.
Take `COc1cccnc1Cn1ccc2nc(N)nc(NCc3noc(C)n3)c21` [Compound 196]: the minimal effective concentration in assay [1] came to 0.002 µM. Moreover, at human TLR7, the “TLR7 LEC” value amounted to 0.01 µM. In addition, the “TLR8 LEC” value on human TLR8 turned out to be 12.6 µM.
Regarding `Cc1nc(Cn2ccc3nc(N)nc(NC(C)c4ccccn4)c32)cs1` (stereo not drawn) [Compound 197], the minimal effective concentration in assay [1] is 0.04 µM. Also, on human TLR7, the “TLR7 LEC” value worked out at 0.39 µM. Also, the “TLR8 LEC” value on human TLR8 is above 25 µM.
`CC(C)(O)CCNc1nc(N)nc2ccn(Cc3ccccn3)c12` [Compound 198]: the minimal effective concentration in assay [1] was 0.617 µM. On human TLR7, the “TLR7 LEC” value stood at 8.76 µM. For the same compound, on human TLR8, the “TLR8 LEC” value is above 25 µM.
`COCCn1ccc2nc(N)nc(NCc3cc(C(C)C)on3)c21` [Compound 199]: in assay [1], the minimal effective concentration was found to be 0.032 µM. Besides, the “TLR7 LEC” value on human TLR7 turned out to be 0.60 µM. Also, the “TLR8 LEC” value at human TLR8 is 23.5 µM.
On to `COCCn1ccc2nc(N)nc(NCc3cc(C4CC4)on3)c21` [Compound 200], for which the minimal effective concentration in assay [1] came to 0.035 µM. Further, the “TLR7 LEC” value at human TLR7 worked out at 0.17 µM. Moreover, the “TLR8 LEC” value at human TLR8 was found to be 11.4 µM.
For `COCCn1ccc2nc(N)nc(NC(C)c3cccnc3)c21` (stereo not drawn) [Compound 201], in that order: 0.978 µM, 7.30 µM and above 25 µM.
For the compound `COCCn1ccc2nc(N)nc(NCc3ccc(C)cn3)c21` [Compound 202], in assay [1], the minimal effective concentration amounted to 0.58 µM. Further, the “TLR7 LEC” value on human TLR7 amounted to 1.61 µM. Also, at human TLR8, the “TLR8 LEC” value is above 25 µM.
Taken in the same sequence, the figures for `Cc1nc(CNc2nc(N)nc3ccn(Cc4ncccn4)c23)no1` [Compound 203] were 0.138 µM, 1.04 µM and above 25 µM.
